The source of these data is article PMC5441580, “GPR40 partial agonist MK-2305 lower fasting glucose in the Goto Kakizaki rat via suppression of endogenous glucose production” (PLoS ONE, 2017).

For experiment [1], the target named is T1, rat GPR120 (FFAR4) (Rattus norvegicus, UniProt Q2AC31).
T1 construct: expressed in transfected cells
T1 sequence (Q2AC31 1-361): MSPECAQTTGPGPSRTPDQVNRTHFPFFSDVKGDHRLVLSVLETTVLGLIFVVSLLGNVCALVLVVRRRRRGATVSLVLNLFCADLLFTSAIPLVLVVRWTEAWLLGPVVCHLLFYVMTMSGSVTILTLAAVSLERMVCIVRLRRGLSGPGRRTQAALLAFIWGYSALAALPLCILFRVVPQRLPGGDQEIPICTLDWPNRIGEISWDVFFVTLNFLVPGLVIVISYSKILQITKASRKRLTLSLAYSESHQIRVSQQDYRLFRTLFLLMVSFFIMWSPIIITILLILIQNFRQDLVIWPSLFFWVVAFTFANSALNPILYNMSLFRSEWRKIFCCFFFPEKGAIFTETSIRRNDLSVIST
Briefly: IP1 functional assay, HEK293 cells stably expressing rat GPR120. The class given is cell-based. As to conditions: individual experiments (raw data of Table 1). Here is the method:
CHO Jump-IN cells stably expressing rat GPR40 or HEK293 Jump-IN cells stably expressing rat GPR120 were cultured in DMEM media supplemented with 10% dialyzed FBS, non-essential amino acids, penicillin/streptomycin, 10 μg/ml Blasticidin S HCL and 200 or 100 μg/ml Hygromycin B, respectively (Life Technologies). Cell stocks were maintained and grown in a sub-confluent state using standard cell culture procedures. The day before the experiment, the cells were harvested with non-enzymatic cell dissociation buffer and re-suspended in DMEM supplemented as described above at 0.15 million cells per ml. […] The seeded plates were incubated overnight at 37°C in a humidified environment.
On the day of the experiment, the growth media was removed from the assay plate by centrifugation using a BlueCatBio BlueWasher, protocol #21 “Light Dry” and 10 μl of IP1 stimulation buffer (prepared according to the Cisbio IP-one Tb HTRF kit) is added to each well. Test compounds were dissolved and serially diluted in DMSO as 200X the final assay concentration and 50 nl of the compound dilution was acoustically added to each well of the assay plates. The plates were then incubated for 60 minutes at room temperature and 10 μl of detection buffer (prepared according to the IP-one Tb HTRF kit) is added to each well of the assay plate. […] Maximal % activation and EC50 are then determined for each test compound.

Experiment [2] has as its system WKY rats. Nature of the experiment: endogenous glucose production in vivo, 2H/13C dual tracer, acute treatment, WKY rats. More on the design: species or system rat. The procedure: [The procedure below names another organism; the source lists this organism under the same test.] To evaluate whether MK-2305 treatment produced an effect on EGP in vivo, a ^2H/^13C dual tracer approach was used to calculate EGP and its contributing sources. On the day of the study, GK rats were bled via tail snip, and blood glucose was measured via glucometer. Ambient glucose was measured at 8 A.M. and used to sort animals into treatment groups (n = 8 per group). 0.9% NaCl salinated D2O (Sigma-Aldrich, St. Louis, MO) was administered to all animals via IP injection at dose volume of 20 ml/kg. Animals were then placed in clean cages and food was removed. After a 5 hour fast, blood glucose was measured and animals were dosed PO with MK-2305 at 10 mg/kg (5 ml/kg) or vehicle (0.5% methylcellulose) immediately followed by 50 mg/kg [U-^13C] glucose (Sigma-Aldrich) IP at 5 ml/kg. Blood was collected via tail snip at time points from 60–150 min post treatment to measure blood glucose as well as endogenous (^12C-glucose) and exogenous (^13C-glucose) via GCMS. Following the last tail blood collection, rats were anesthetized with isoflurane and cardiac blood was collected into K2EDTA tubes (Becton, Dickinson and Co., Franklin Lakes, NJ).
The serially collected blood samples were analyzed for ^13C-glucose enrichment using GC-MS analysis. The % ^13C glucose enrichments were then combined with the total glucose readings to calculate the concentration of ^13C-glucose, and these values were modeled with a two-compartment model of whole body glucose metabolism to calculate the average EGP for the period from 0–150 minutes.
Terminal blood samples were analyzed for relative ^2H enrichment in plasma glucose using the monoacetone glucose method. Briefly, samples were extracted with 70% perchloric acid and centrifuged at 25,000 rcf for 10 min at 4°C. The supernatant was collected and the pH was adjusted to 6–8 using KOH. The samples were then lyophilized overnight. To convert plasma glucose to monoacetone glucose (MAG), acetone and concentrated sulfuric acid were added to the lyophilized samples and stirred for 4 hours at room temperature. Water was then added and the pH adjusted to 2.0 with 3M Na2CO3. Samples were stirred moderately for 18 hours at room temperature, the pH was adjusted to 7 with 3M Na2CO3, and the samples were completely dried by speed vacuum concentration. The resulting MAG samples were then extracted in hot ethyl acetate, dried overnight under a stream of N2 gas, purified using Discovery DSC-18 SPE columns (6 ml, 1 g bed weight), and freeze dried. Purified MAG samples were solubilized in 180 μl 90% acetonitrile for ^2H NMR analysis which was performed using the lock channel of a 950 MHz Bruker NMR spectrometer (David H Murdock Research Institute, Kannapolis, NC). Acquisition parameters were as follows: 90° pulse, D1 = 1 s, ^1H broadband decoupling, NS = 3600 averages, acquisition time ~ 1 hr. The ^2H NMR spectra of the MAG samples were then analyzed using in–house developed Matlab (The Mathworks Inc, Natick, MA) to model the NMR peaks with a Lorentzian line shape, and the results were used to calculate integrals for each of the seven NMR resonances in the MAG spectrum. Peaks 2, 5, and 6s were then used to calculate the relative sources of EGP (i.e. gluconeogenesis from TCA cycle substrates, gluconeogenesis from triose phosphates, and glycogenolysis) and these values were combined with the total EGP measurement to calculate absolute fluxes of glucose production.

[3] abbreviates: acute treatment, 10 mg/kg, individual animals.

pEC50: −log10 of the molar value. Several values for one entry are separate records, joined by “and”; a condition that tells them apart may be missing. Equal values may be shown once.

For the compound `O=C1NC(=O)C(C2CCOc3cc(Oc4ccc(C(F)(F)F)cc4Cl)ccc32)S1` (stereo not shown) [MK-2305], in experiment [1], the “% Activation” value is -22% and -18% and -16% and 8%; the pEC50 is less than 5.00. For the same compound, the “effects on EGP” value in experiment [2] (acute) is recorded as “not statistically significant”. In experiment [2] (setting [3]), the “Glucose Production, GNG Glycerol” value is 2.7 umol/kg/min (2×) and 2.4 umol/kg/min and 1.6 umol/kg/min; the “Glucose Production, GNG TCA” value was 8 µmol/kg/min and 8.7 µmol/kg/min and 7.8 µmol/kg/min and 6.4 µmol/kg/min; the “Glucose Production, GNG Total” value is 10.7 µmol/kg/min and 11.2 µmol/kg/min and 10.5 µmol/kg/min and 8.1 µmol/kg/min; the “Glucose Production, Glycogenolysis” value is 6.9 µmol/kg/min and 4.7 µmol/kg/min and 6.8 µmol/kg/min and 3.4 µmol/kg/min.

As usually defined, the pEC50 is the EC50 on a negative log10 scale, so that one unit is a factor of ten. A higher pEC50 goes with a low EC50.
